From patent US20250154169A1, “COMPOUNDS AND METHODS FOR MODULATING SPLICING” (REMIX THERAPEUTICS INC., priority 2021, published 2025)
pIC50: −log10 of the molar value. Read-outs that look alike come from different tables or passages of the source.

Legend:
Assay type in all cases: cell-based, human
[1] = test system: SMN2 mRNA; test: Splicing RT-qPCR gene panel, SMN2 canonical junction (CJ) mRNA; settings: Homo sapiens, Tables 4A/4B, read-out: SMN2 (IC50, decrease in CJ mRNA, gene panel)
In short: (§1)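 Cells (A673 in DMEM/10% FBS, K562 in IMDM/10% FBS) got compound for 24 h, top dose 10 uM, 11 points, 3-fold steps, DMSO ≤0.25%. Lysates went to RT-qPCR for the canonical exon-exon junction; ΔΔCt against housekeeper and DMSO gave RQ, then percentage response.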

[2] = test system: HTT mRNA; test: Splicing RT-qPCR assay, HTT canonical (CJ) and alternative (AJ) junction mRNA; settings: Homo sapiens
In short: (§2)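 A673 or K562 cells were treated 24 h at 37 °C with an 11-point 3-fold compound dilution series (top 10 uM, DMSO ≤0.25%). Lysates went to one-step RT-qPCR measuring canonical (CJ) and alternative-exon (AJ) junction transcripts, normalized to GAPDH, GUSB or PPIA.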

[3] = test system: HTT mRNA; test: Splicing RT-qPCR gene panel, HTT canonical junction (CJ) mRNA; settings: Homo sapiens, Tables 4A/4B, read-out: HTT (IC50, decrease in CJ mRNA, gene panel)
In short: as §1

[4] = test system: MYB mRNA; test: Splicing RT-qPCR assay, MYB canonical (CJ) and alternative (AJ) junction mRNA; settings: Homo sapiens
In short: as §2

[5] = test system: Target C mRNA; test: Splicing RT-qPCR gene panel, Target C canonical junction (CJ) mRNA; settings: Homo sapiens, Tables 4A/4B, read-out: Target C (IC50, decrease in CJ mRNA, gene panel)
In short: as §1

[6] = 24 h, A673 or K562 cells, 24 hours compound treatment, read-out: HTT CJ (IC50, decrease in canonical junction mRNA)
[7] = A673 or K562 cells, 24 hours compound treatment, read-out: HTT AJ (AC50, increase in alternative junction mRNA)
[8] = 24 h, A673 or K562 cells, 24 hours compound treatment, RT-qPCR, read-out: MYB AJ (AC50, increase in alternative junction mRNA)
[9] = 24 h, A673 or K562 cells, 24 hours compound treatment, RT-qPCR, read-out: MYB CJ (IC50, decrease in canonical junction mRNA)
[10] = Tables 4A/4B, canonical junction qPCR panel, read-out: MYB (IC50, decrease in CJ mRNA, gene panel)
[11] = Table 3B, alternative junction mRNA, read-out: HTT AJ (AC50, increase in AJ mRNA)
[12] = Table 3B, canonical junction mRNA, read-out: HTT CJ (IC50, decrease in CJ mRNA)
[13] = Table 3B, canonical junction mRNA, RT-qPCR, read-out: MYB CJ (IC50, decrease in CJ mRNA)
[14] = Table 3B, alternative junction mRNA, RT-qPCR, read-out: MYB AJ (AC50, increase in AJ mRNA)

SMILES | pIC50 [1] | pIC50 [2, 6] | AC50 [2, 7] [nM] | pIC50 [3] | AC50 [4, 8] [nM] | pIC50 [4, 9] | pIC50 [4, 10] | pIC50 [5] | AC50 [2, 11] [nM] | pIC50 [2, 12] | pIC50 [4, 13] | AC50 [4, 14] [nM]
CCn1cc2c(N3CCC(NC)C3)ccc(C(=O)Nc3cc(F)c4nc(C)cn4c3)c2n1 (centres unmarked) [Compound 374, 2-ethyl-N-{8-fluoro-2-methylimidazo[1,2-a]pyridin-6-yl}-4-[3-(methylamino)pyrrolidin-1-yl]indazole-7-carboxamide] | > 7.00 | < 5.00 | > 10000 | < 5.00 | < 100 | > 7.00 | > 7.00 | < 5.00 | – | – | – | –
CCNC1CCN(c2ccc(C(=O)Nc3cc(F)c4nc(C)cn4c3)c3nn(CCOC)cc23)C1 (centres unmarked) [Compound 310, 4-(3-(ethylamino)pyrrolidin-1-yl)-N-(8-fluoro-2-methylimidazo[1,2-a]pyridin-6-yl)-2-(2-methoxyethyl)-2H-indazole-7-carboxamide] | > 7.00 | 5.00 to 6.00 | 1000 to 10000 | 5.00 to 6.00 | < 100 | > 7.00 | > 7.00 | < 5.00 | – | – | – | –
Cc1cn2cc(NC(=O)c3ccc(N4CCNCC4)c4cn(CC(O)CO)nc34)cc(F)c2n1 (centres unmarked) [Compound 329, 2-(2,3-dihydroxypropyl)-N-{8-fluoro-2-methylimidazo[1,2-a]pyridin-6-yl}-4-(piperazin-1-yl)indazole-7-carboxamide] | 5.00 to 6.00 | < 5.00 | > 10000 | < 5.00 | > 10000 | < 5.00 | < 5.00 | < 5.00 | – | – | – | –
Cc1cn2cc(NC(=O)c3ccc(N4CC[C@@H](NC5CC5)C4)c4csnc34)cc(F)c2n1 [Compound 973] | > 7.00 | – | – | 5.00 to 6.00 | – | – | > 7.00 | 5.00 to 6.00 | 1000 to 10000 | 5.00 to 6.00 | > 7.00 | < 100
Cc1cn2cc(NC(=O)c3ccc(N4CCC(NC5CC5)C4)c4cn(C)nc34)cc(F)c2n1 (centres unmarked) [Compound 296, 4-[3-(cyclopropylamino)pyrrolidin-1-yl]-N-{8-fluoro-2-methylimidazo[1,2-a]pyridin-6-yl}-2-methylindazole-7-carboxamide] | > 7.00 | < 5.00 | > 10000 | < 5.00 | < 100 | > 7.00 | > 7.00 | < 5.00 | – | – | – | –
Cc1cn2nc(NC(=O)c3ccc(N4CCNCC4)c4cn(C)nc34)cc2c(C)n1 [Compound 247] | < 5.00 | < 5.00 | > 10000 | < 5.00 | > 10000 | < 5.00 | < 5.00 | < 5.00 | – | – | – | –
CCNC1CCN(c2ccc(C(=O)Nc3cc(F)c4nc(C)cn4c3)n3nc(C(C)O)cc23)C1 (centres unmarked) [Compound 961] | > 7.00 | – | – | 6.00 to 7.00 | – | – | > 7.00 | 6.00 to 7.00 | 100 to 1000 | 6.00 to 7.00 | > 7.00 | < 100
Cc1cn2cc(NC(=O)c3ccc(N4CCNCC4)c4c(C)n(C)nc34)cc(F)c2n1 [Compound 297] | 6.00 to 7.00 | 5.00 to 6.00 | 1000 to 10000 | 5.00 to 6.00 | 1000 to 10000 | 5.00 to 6.00 | 5.00 to 6.00 | 5.00 to 6.00 | – | – | – | –
CCNC1CCN(c2ccc(C(=O)Nc3cc(F)c4nc(C)sc4c3)c3nn(C)cc23)CC1 [Compound 443, 4-[4-(ethylamino)piperidin-1-yl]-N-(4-fluoro-2-methyl-1,3-benzothiazol-6-yl)-2-methylindazole-7-carboxamide] | > 7.00 | 5.00 to 6.00 | 1000 to 10000 | 5.00 to 6.00 | < 100 | > 7.00 | 6.00 to 7.00 | < 5.00 | – | – | – | –
Cc1cn2cc(NC(=O)c3ccc(N4CCC(CN)CC4)c4cn(C)nc34)cc(F)c2n1 [Compound 335, 4-[4-(aminomethyl)piperidin-1-yl]-N-{8-fluoro-2-methylimidazo[1,2-a]pyridin-6-yl}-2-methylindazole-7-carboxamide] | 6.00 to 7.00 | < 5.00 | > 10000 | < 5.00 | 1000 to 10000 | 5.00 to 6.00 | 5.00 to 6.00 | < 5.00 | – | – | – | –
Cc1cn2cc(NC(=O)c3ccc(N4CCNCC4)n4cc(C)nc34)cc(F)c2n1 [Compound 908] | > 7.00 | – | – | 6.00 to 7.00 | – | – | > 7.00 | 5.00 to 6.00 | 100 to 1000 | 6.00 to 7.00 | > 7.00 | < 100
Cc1cn2cc(NC(=O)c3ccc(N4CCN(C)C(C)C4)c4cn(C)nc34)cc(F)c2n1 (centres unmarked) [Compound 229] | > 7.00 | 6.00 to 7.00 | 100 to 1000 | 6.00 to 7.00 | < 100 | > 7.00 | > 7.00 | 5.00 to 6.00 | – | – | – | –
Cc1cn2cc(NC(=O)c3c(F)cc(N4CCC(N(C)C)C4)c4cn(C)nc34)cc(F)c2n1 (stereo in doubt) [Compound 463, 4-[(3R)-3-(dimethylamino)pyrrolidin-1-yl]-6-fluoro-N-{8-fluoro-2-methylimidazo[1,2-a]pyridin-6-yl}-2-methylindazole-7-carboxamide] | > 7.00 | 6.00 to 7.00 | 100 to 1000 | 6.00 to 7.00 | < 100 | > 7.00 | > 7.00 | < 5.00 | – | – | – | –
Cc1cn2cc(NC(=O)c3ccc(C4CCN(C)CC4)c4cc(C)oc34)cc(F)c2n1 [Compound 256] | > 7.00 | 5.00 to 6.00 | 1000 to 10000 | 5.00 to 6.00 | 100 to 1000 | 6.00 to 7.00 | 6.00 to 7.00 | < 5.00 | – | – | – | –
Cc1cn2cc(NC(=O)c3ccc(N4CCNCC4)c4nn(C)nc34)cc(F)c2n1 [Compound 427, N-{8-fluoro-2-methylimidazo[1,2-a]pyridin-6-yl}-2-methyl-7-(piperazin-1-yl)-1,2,3-benzotriazole-4-carboxamide] | > 7.00 | 6.00 to 7.00 | 100 to 1000 | 6.00 to 7.00 | 100 to 1000 | 6.00 to 7.00 | 6.00 to 7.00 | 5.00 to 6.00 | – | – | – | –
Cc1cn2nc(NC(=O)c3ccc(N4CCNCC4)c4cc(C)oc34)cc2c(C)n1 [Compound 265] | 5.00 to 6.00 | < 5.00 | > 10000 | < 5.00 | > 10000 | < 5.00 | < 5.00 | < 5.00 | – | – | – | –
CCn1cc2c(N3CC4(CNC4)C3)ccc(C(=O)Nc3cc(F)c4nc(C)cn4c3)c2n1 [Compound 477, 4-{2,6-diazaspiro[3.3]heptan-2-yl}-2-ethyl-N-{8-fluoro-2-methylimidazo[1,2-a]pyridin-6-yl}indazole-7-carboxamide] | 6.00 to 7.00 | 5.00 to 6.00 | > 10000 | 5.00 to 6.00 | 100 to 1000 | 6.00 to 7.00 | 6.00 to 7.00 | < 5.00 | – | – | – | –
Cc1cn2cc(NC(=O)c3ccc(N4C[C@H]5CC[C@@H](C4)N5)c4cn(C)nc34)cc(F)c2n1 [Compound 260] | 5.00 to 6.00 | 6.00 to 7.00 | 100 to 1000 | 6.00 to 7.00 | < 100 | > 7.00 | > 7.00 | 5.00 to 6.00 | – | – | – | –
CN[C@@H]1CCN(c2ccc(C(=O)Nc3cn4cc(C)nc4c(N(C)C)n3)c3nn(C)cc23)C1 [Compound 425] | < 5.00 | < 5.00 | > 10000 | < 5.00 | > 10000 | < 5.00 | < 5.00 | < 5.00 | – | – | – | –
